Tested on: valine decarboxylase
Test: Enzymatic activity assay of purified valine decarboxylase with amino acid substrates, HPLC detection of primary amine
Type: biochemical, Streptomyces viridifaciens
Details: 1 mM amino acid, 0.1 mM PLP, 150 μg purified his-tagged enzyme, 50 mM potassium phosphate buffer pH 7.5, 37° C., 2 hours
Description: An enzymatic activity assay was performed using a 50 mM potassium phosphate buffer (pH 7.5), and the substrate and enzyme used for the assay were added in the following amounts to the enzyme reaction solution.
Amino acids used as substrates were used at a concentration of 1 mM, and the amino acids used herein were L-alanine, L-2-aminobutyrate, 2-aminoisobutyrate, L-norvaline, L-valine, L-isovaline, L-norleucine, L-leucine, L-isoleucine, 1-aminocyclopentanecarboxylic acid, 1-aminocyclohexanecarboxylic acid, and L-2-phenylglycine. 0.1 mM pyridoxal phosphate (PLP) and 150 μg of the purified valine decarboxylase were added, followed by conducting reaction at 37° C. for 2 hours, and the sample after the reaction was analyzed by HPLC to identify primary amine.
Primary amine production was analyzed using HPLC (1100 Series HPLC; Agilent Technologies, Santa Clara, CA). The primary amine derivatization for analysis was performed in an automatic manner before analysis using an o-phthaldialdehyde (OPA; Sigma, St. Louis, MO) reagent. The OPA reagent for derivatization was prepared by dissolving 0.20 g of OPA reagent in 9.0 mL of methanol and then adding 1.0 mL of 0.40 M (pH 9.0) borate buffer and 160 μL of 2-mercaptoethanol thereto. For derivatization, 1 μL of the sample was mixed with 5 μL of 0.40 M (pH 9.0) borate buffer. Then, 1 μL of the OPA reagent for derivatization prepared above was added thereto, followed by HPLC analysis. Analysis was performed at 25° C. using an Eclipse plus C18 column (4.6×150 mm; Agilent Technologies). Solvent A for analysis was prepared by mixing 1.4 g/L of Na2HPO4 and 3.8 g/L of Na2B4O7·10H2O with 8 mg/L of NaN3, and adjusting the final pH of the resulting mixture to 7.2 using HCl. Solvent B was prepared by mixing 45% acetonitrile and 45% methanol with 10% H2O based on volume %. The solvent was fed at a rate of 2 mL/min. […] The derivatized secondary amines could be analyzed by detecting light with a wavelength of 230 nm using a variable wavelength detector (G1314A; Agilent Technologies).

| Compound | conversion of the amino acid substrate to the corresponding primary amine by valine decarboxylase |
| --- | --- |
| C[C@H](N)C(=O)O [L-alanine] | successfully converted |
| L-2-aminobutyrate | successfully converted |
| CCCC[C@H](N)C(=O)O [L-norleucine] | successfully converted |
| N[C@H](C(=O)O)c1ccccc1 [L-2-phenylglycine] | successfully converted |
| CC(C)[C@H](N)C(=O)O [L-valine] | successfully converted |
| CC[C@H](C)[C@H](N)C(=O)O [L-isoleucine] | successfully converted |
| CC(C)C[C@H](N)C(=O)O [L-leucine] | successfully converted |
| NC1(C(=O)O)CCCC1 [1-aminocyclopentanecarboxylic acid] | successfully converted |
| NC1(C(=O)O)CCCCC1 [1-aminocyclohexanecarboxylic acid] | successfully converted |
| CCC[C@H](N)C(=O)O [L-norvaline] | successfully converted |
| CC(C)(N)C(=O)O [2-aminobutyrate, 2-aminoisobutyrate] | successfully converted |
| CC[C@](C)(N)C(=O)O [L-isovaline] | successfully converted |

Source: patent US12104192B2, “Method of preparing primary amines from amino acids using enzymatic conversion” (KOREA ADVANCED INSTITUTE OF SCIENCE AND TECHNOLOGY, priority 2020, dated 2024)
